The text below walks through data of US20080200454A1, “CARBON-LINKED TETRAHYDRO-PYRAZOLO-PYRIDINE MODULATORS OF CATHEPSIN S” (priority 2007, published 2008).

The pIC50 is the negative decadic logarithm of the IC50, by convention in mol/L.

The structures appear in SMILES notation. pIC50: −log10 of the molar value. Like-named read-outs stand apart in the source and are kept apart here.

The target in the assay is Recombinant human cathepsin S (CatS) (Homo sapiens, UniProt P25774). The assay is described as follows: Recombinant human cathepsin S (CatS) inhibition assay, fluorogenic substrate Z-Valine-Valine-Arginine-AMC.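 Note: Baculovirus-expressed CatS in pH 5.0 sodium acetate buffer with DTT and NaCl, fluorescence read each minute over 20 min, inhibition derived from rate slope.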
Sequence of Recombinant human cathepsin S (CatS) (P25774 115-331): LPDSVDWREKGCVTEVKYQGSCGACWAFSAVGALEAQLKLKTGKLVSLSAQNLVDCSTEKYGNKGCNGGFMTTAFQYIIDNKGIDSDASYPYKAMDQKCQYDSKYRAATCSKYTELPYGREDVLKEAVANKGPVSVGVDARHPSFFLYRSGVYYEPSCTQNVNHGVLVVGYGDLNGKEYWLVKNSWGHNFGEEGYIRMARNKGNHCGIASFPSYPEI

Take `CC1COCCN1CCCn1nc(-c2ccc(Cl)c(C#Cc3ccc(Cl)c(CNCC(=O)O)c3)c2)c2c1CCN(C(N)=O)C2` (stereo in doubt) [Example 221, N-{[5-({5-[5-(Aminocarbonyl)-1-{3-[(3S)-3-methylmorpholin-4-yl]propyl}-4,5,6,7-tetrahydro-1H-pyrazolo[4,3-c]pyridin-3-yl]-2-chlorophenyl}ethynyl)-2-chlorophenyl]methyl}glycine]: the pIC50 is 7.70.
As to `CS(=O)(=O)N1CCc2c(c(-c3ccc(Cl)c(C#Cc4ccc(CNCc5ccc(Cl)cc5)cc4)c3)nn2CCCN2CCC(N)CC2)C1` [Example 331, 1-{3-[3-(4-Chloro-3-{[4-({[(4-chlorophenyl)methyl]amino}methyl)phenyl]ethynyl}phenyl)-5-(methylsulfonyl)-4,5,6,7-tetrahydro-1H-pyrazolo[4,3-c]pyridin-1-yl]propyl}piperidin-4-amine], the pIC50 (CatS IC50) was 6.77.
On to `CS(=O)(=O)N1CCc2c(c(-c3ccc(Cl)c(C#Cc4ccc(CNCc5ccc(Cl)cc5)cc4)c3)nn2CCCN2CCC3(CC2)OCCO3)C1` [Example 335, 1-{4-[(2-Chloro-5-{1-[3-(1,4-dioxa-8-azaspiro[4.5]dec-8-yl)propyl]-5-(methylsulfonyl)-4,5,6,7-tetrahydro-1H-pyrazolo[4,3-c]pyridin-3-yl}phenyl)ethynyl]phenyl}-N-[(4-chlorophenyl)methyl]methanamine], for which the pIC50 is 7.22.
Same read-out and setting: in the case of `CS(=O)(=O)N1CCc2c(c(-c3ccc(Cl)c(C#Cc4ccc(CN)cc4)c3)nn2CCCN2CCOCC2)C1` [Example 69, 4-{2-Chloro-5-[5-methanesulfonyl-1-(3-morpholin-4-yl-propyl)-4,5,6,7-tetrahydro-1H-pyrazolo[4,3-c]pyridin-3-yl]-phenylethynyl}-benzylamine] it was 6.28; in that of `NC(=O)N1CCc2c(c(-c3ccc(Cl)c(C#Cc4ccc(COCC5CNCCO5)cc4)c3)nn2CCCN2CCSCC2)C1` (centres unmarked) [Example 548, 3-{4-Chloro-3-[(4-{[(morpholin-2-ylmethyl)oxy]methyl}phenyl)ethynyl]phenyl}-1-(3-thiomorpholin-4-ylpropyl)-1,4,6,7-tetrahydro-5H-pyrazolo[4,3-c]pyridine-5-carboxamide], 6.92.
`CS(=O)(=O)N1CCc2c(c(-c3ccc(Cl)c(C#CCOc4ccccc4)c3)nn2CCCN2CCOCC2)C1` [Example 52, 3-[4-Chloro-3-(3-phenoxy-prop-1-ynyl)-phenyl]-5-methanesulfonyl-1-(3-morpholin-4-yl-propyl)-4,5,6,7-tetrahydro-1H-pyrazolo[4,3-c]pyridine]: the negative logarithm of the IC50 (pIC50) is 4.87.
On to `Cc1cc(CNCc2ccc(C#Cc3cc(-c4nn(CCCN5CCOCC5)c5c4CN(S(C)(=O)=O)CC5)ccc3Cl)cc2)c(C(F)(F)F)o1` [Example 426, 1-[4-({2-Chloro-5-[5-(methylsulfonyl)-1-(3-morpholin-4-ylpropyl)-4,5,6,7-tetrahydro-1H-pyrazolo[4,3-c]pyridin-3-yl]phenyl}ethynyl)phenyl]-N-{[5-methyl-2-(trifluoromethyl)furan-3-yl]methyl}methanamine], for which the pIC50 (CatS IC50) is 6.41.
`COC(=O)C1NCCc2cc(C#Cc3cc(-c4nn(CCCN5CCOCC5)c5c4CN(S(C)(=O)=O)CC5)ccc3Cl)ccc21` (centres unmarked) [Example 208, Methyl 6-({2-chloro-5-[5-(methylsulfonyl)-1-(3-morpholin-4-ylpropyl)-4,5,6,7-tetrahydro-1H-pyrazolo[4,3-c]pyridin-3-yl]phenyl}ethynyl)-1,2,3,4-tetrahydroisoquinoline-1-carboxylate]: the negative-log IC50 (pIC50) is 5.50.
Take `NC(=O)C(=O)N1CCc2c(c(-c3ccc(Cl)c(C#Cc4ccc(CNCc5ccc(Cl)cc5)cc4)c3)nn2CCCN2C[C@@H]3C[C@H]2CO3)C1` [Example 435, 2-[3-(4-Chloro-3-{[4-({[(4-chlorophenyl)methyl]amino}methyl)phenyl]ethynyl}phenyl)-1-{3-[(1S,4S)-2-oxa-5-azabicyclo[2.2.1]hept-5-yl]propyl}-1,4,6,7-tetrahydro-5H-pyrazolo[4,3-c]pyridin-5-yl]-2-oxoacetamide]: the pIC50 was 7.10.
Take `CS(=O)(=O)N1CCc2c(c(-c3ccc(Cl)c(C#Cc4ccc(C(=O)O)cc4)c3)nn2CCCN2CCOCC2)C1` [Example 19, 4-{2-Chloro-5-[5-methanesulfonyl-1-(3-morpholin-4-yl-propyl)-4,5,6,7-tetrahydro-1H-pyrazolo[4,3-c]pyridin-3-yl]-phenylethynyl}-benzoic acid]: the pIC50 (CatS IC50, Table 2, average of results obtained) was 6.38.
`NC(=O)N1CCc2c(c(-c3ccc(Cl)c(C#Cc4ccc(Cl)c(C(=O)NCCCO)c4)c3)nn2CCCN2CCSCC2)C1` [Example 555, 3-[4-Chloro-3-({4-chloro-3-[(3-hydroxypropyl)carbamoyl]phenyl}ethynyl)phenyl]-1-(3-thiomorpholin-4-ylpropyl)-1,4,6,7-tetrahydro-5H-pyrazolo[4,3-c]pyridine-5-carboxamide]: the pIC50 was 7.70.
Regarding `CC(=O)NC1CCN(CCCn2nc(-c3ccc(Cl)c(C#Cc4ccc5c(c4)CNCC5)c3)c3c2CCN(S(C)(=O)=O)C3)CC1` [Example 227, N-[1-(3-{3-[4-Chloro-3-(1,2,3,4-tetrahydroisoquinolin-7-ylethynyl)phenyl]-5-(methylsulfonyl)-4,5,6,7-tetrahydro-1H-pyrazolo[4,3-c]pyridin-1-yl}propyl)piperidin-4-yl]acetamide], the pIC50 (CatS IC50) was 7.40.
Regarding `CC1CCCN(CCCc2cc(-c3nn(CCCN4CCC(N5CCCC5=O)CC4)c4c3CN(S(C)(=O)=O)CC4)ccc2Cl)C1` (centres unmarked) [Example 103, 1-{1-[3-(3-{4-Chloro-3-[3-(3-methyl-piperidin-1-yl)-propyl]-phenyl}-5-methanesulfonyl-4,5,6,7-tetrahydro-pyrazolo[4,3-c]pyridin-1-yl)-propyl]-piperidin-4-yl}-pyrrolidin-2-one], the pIC50 was 6.51.
Regarding `CS(=O)(=O)N1CCc2c(c(-c3ccc(Cl)c(C#Cc4ccc(CNCCc5ccccc5)cc4)c3)nn2CCCN2CCOCC2)C1` [Example 316, N-{[4-({2-Chloro-5-[5-(methylsulfonyl)-1-(3-morpholin-4-ylpropyl)-4,5,6,7-tetrahydro-1H-pyrazolo[4,3-c]pyridin-3-yl]phenyl}ethynyl)phenyl]methyl}-2-phenylethanamine], the pIC50 was 6.24.
On to `NC(=O)N1CCc2c(c(-c3ccc(Cl)c(C#Cc4ccc5c(c4)CN(Cc4ccc(Cl)cc4)CC5)c3)nn2CCCN2CCOCC2)C1` [Example 465, 3-[4-Chloro-3-({2-[(4-chlorophenyl)methyl]-1,2,3,4-tetrahydroisoquinolin-7-yl}ethynyl)phenyl]-1-(3-morpholin-4-ylpropyl)-1,4,6,7-tetrahydro-5H-pyrazolo[4,3-c]pyridine-5-carboxamide], for which the pIC50 (CatS IC50) is 6.82.
As to `CS(=O)(=O)N1CCc2c(c(-c3ccc(Cl)c(C#CCCCO)c3)nn2CCCN2CCOCC2)C1` [Example 46, 5-{2-Chloro-5-[5-methanesulfonyl-1-(3-morpholin-4-yl-propyl)-4,5,6,7-tetrahydro-1H-pyrazolo[4,3-c]pyridin-3-yl]-phenyl}-pent-4-yn-1-ol], the pIC50 was 5.10.
As to `C[C@H]1COCCN1CCCn1nc(-c2ccc(Cl)c(C#Cc3ccc(CNCc4cccs4)cc3)c2)c2c1CCN(S(C)(=O)=O)C2` [Example 433, 1-[4-({2-Chloro-5-[1-{3-[(3S)-3-methylmorpholin-4-yl]propyl}-5-(methylsulfonyl)-4,5,6,7-tetrahydro-1H-pyrazolo[4,3-c]pyridin-3-yl]phenyl}ethynyl)phenyl]-N-(2-thienylmethyl)methanamine], the pIC50 (CatS IC50) is 6.62.
